Results as given in patent US9187454B2, “Inhibitors of kinases and cancer stem cells, and methods of preparation and use thereof” (Boston Biomedical, Inc., priority 2013, dated 2015).

Key:
Type in all cases: cell-based
[1] = system: FaDu; assay: Bulk cancer cell viability, CellTiter-Glo, FaDu; details: viability 72 hours after drug treatment
Experimental: (§1) Cancer cells were plated at 5000 cells per well in black-walled 96 well plates in 100 uL per well of complete media (DMEM, 10% FBS, 1% penicillin/streptomycin). Cells were treated with each of the compounds 24 hours after plating with a dose curve of the indicated compounds in triplicate wells. Cells were harvested 72 hours after drug treatment and viability was determined using CellTiter-Glo assay (Promega) as directed by the manufacturer.

[2] = system: FaDu CSC; assay: Cancer stem cell sphere culture viability, CellTiter-Glo, FaDu CSC; details: CSC cultures, viability 72 hours after drug treatment
Experimental: (§2) Cancer Stem Cell (CSC) cultures were initiated from heterogenous cancer cell lines. Briefly, cancer cell cultures were trypsonized and collected in centrifuge tubes. Cells were then pelleted by centrifugation, media removed, and cells resuspended in phosphate buffered saline (PBS). Cells were then pelleted again, and the process repeated for a total of three PBS washes. Cells were subsequently resuspended in CSC media (DMEMF-12, 1×B27 supplement (Life Technologies), 0.4% BSA, 10 ng/ml EGF, 10 ng/ml FGF). Following resuspension, cells were passed through a 40 uM cell strainer to obtain a single cell suspension. Cells were then plated in 100 mm dishes coated with 0.5% Agar to prevent cell attachment. Cells were then allowed to grow for 5-7 days to allow CSC sphere formation.
(§3) CSC spheres that were a minimum of passage 2 were dissociated with Accutase and filtered through a 40 uM cell strainer before counting to remove any cell clumps. CSCs were then plated at 1000 cells per well in black-walled 96 well plates that have been coated in 0.5% Agar in 100 uL per well of CSC media. CSCs were then allowed to grow for 72 hours. CSC cultures were then treated with a dose curve of the indicated compounds in triplicate wells. CSC cultures were harvested 72 hours after drug treatment and viability determined using CellTiter-Glo assay (Promega) as directed by the manufacturer.

[3] = system: A549; assay: Bulk cancer cell viability, CellTiter-Glo, A549; details: Homo sapiens, viability 72 hours after drug treatment
Experimental: as §1

[4] = system: ACHN; assay: Bulk cancer cell viability, CellTiter-Glo, ACHN; details: viability 72 hours after drug treatment
Experimental: as §1

[5] = system: A549 CSC; assay: Cancer stem cell sphere culture viability, CellTiter-Glo, A549 CSC; details: Homo sapiens, CSC cultures, viability 72 hours after drug treatment
Experimental: as §2, §3

| Structure (SMILES) | IC50 ([1]; Homo sapiens, FaDu, 72 h) | IC50 ([2]; Homo sapiens, FaDu, 72 h) | further results |
| --- | --- | --- | --- |
| Cc1[nH]c(/C=C2\C(=O)Nc3cc(-c4csc(-c5ccccc5)n4)ccc32)c(C)c1C(=O)N1CCOCC1 [Compound 268] | 64.8 µM | – | – |
| CCN(CC)CCNC(=O)c1c(C)[nH]c(/C=C2\C(=O)Nc3ccc(-c4cn(-c5ccccc5)nc4C)cc32)c1C [Compound 287] | – | – | IC50 [1]: 5.79 µM; IC50 [2]: 1.31 µM |
| Cc1[nH]c(/C=C2\C(=O)Nc3ccc(-c4csc(-c5ccncc5)n4)cc32)c(C)c1CCC(=O)O [Compound 348] | 64.4 µM | – | – |
| Cc1cc(C(=O)NCCO)[nH]c1/C=C1\C(=O)Nc2ccc(-c3csc(-c4ccccc4)n3)cc21 [Compound 370] | 56 µM | – | – |
| Cc1[nH]c(/C=C2\C(=O)Nc3ccc(-c4csc(-c5ccccc5)n4)nc32)c(C)c1C(=O)NCCN1CCCC1 [Compound 262] | 3.62 µM | 1.1 µM | IC50 [3]: 3.15 µM; IC50 ([4]; Homo sapiens, ACHN, 72 h): 2.83 µM; IC50 [5]: 2.01 µM |
| CCN(CC)CCNC(=O)c1c(C)[nH]c(/C=C2\C(=O)Nc3ccc(C4=CS/C(=C\c5ccccc5)N4C)cc32)c1C [Compound 283] | 5.35 µM | 2.17 µM | – |
| CCN(CC)CCNC(=O)c1c(C)[nH]c(/C=C2\C(=O)Nc3ccc(-c4ccc(-c5cccnc5)s4)cc32)c1C [Compound 298] | 14.3 µM | 40.8 µM | – |
| O=C1Nc2ccc(-c3csc(-c4ccccc4)n3)cc2/C1=C/c1ccc(C(=O)NCCN2CCOCC2)c(=O)[nH]1 [Compound 265] | 62.7 µM | – | – |
| CCN(CC)CCNC(=O)c1c(C)[nH]c(/C=C2\C(=O)Nc3ccc(C4CCN(C5CCN(C(C)=O)CC5)CC4)cc32)c1C [Compound 272] | 22.3 µM | – | – |
| CCN(CC)CCNC(=O)c1ccc(/C=C2\C(=O)Nc3ccc(-c4csc(-c5ccccc5)n4)cc32)[nH]c1=O [Compound 263] | 2.41 µM | 8.16 µM | – |
| Cc1[nH]c(/C=C2\C(=O)Nc3c2cccc3-c2csc(-c3ccccc3)n2)c(C)c1C(=O)N1CCN(C)CC1 [Compound 236] | 11.3 µM | 2.53 µM | – |
| O=C1Nc2ccc(-c3csc(-c4ccncc4)n3)cc2/C1=C/c1cc2ccccc2[nH]1 [Compound 352] | 67.8 µM | – | – |
| CCN(CC)CCNC(=O)c1c(C)[nH]c(/C=C2\C(=O)Nc3cc(-c4csc(-c5ccccc5)n4)ccc32)c1C [Compound 233] | 5.02 µM | 0.66 µM | – |
| CN1CCN(C(=O)c2ccc(/C=C3\C(=O)Nc4ccc(-c5csc(-c6ccccc6)n5)cc43)[nH]c2=O)CC1 [Compound 264] | 99.8 µM | – | – |
| CCN(CC)CCNC(=O)c1c(C)[nH]c(/C=C2\C(=O)Nc3ccc(-c4ncc(-c5ccccc5)o4)cc32)c1C [Compound 247] | – | – | IC50 ([4]; Homo sapiens, ACHN, 72 h): 63.3 µM |
| CCN(CC)CCNC(=O)c1c(C)[nH]c(/C=C2\C(=O)Nc3cc(-c4ccc(-c5ccccc5)s4)ccc32)c1C [Compound 244] | 87.6 µM | – | – |
| Cc1[nH]c(/C=C2\C(=O)Nc3cc(-c4csc(-c5ccccc5)n4)ccc32)c(C)c1C(=O)N1CCN(C)CC1 [Compound 234] | 6.29 µM | – | – |
| CCN(CC)CCNC(=O)c1c(C)[nH]c(/C=C2\C(=O)Nc3ccc(-c4csc(-c5ccccc5)n4)nc32)c1C [Compound 261] | 1.51 µM | 0.65 µM | IC50 [3]: 1.12 µM; IC50 ([4]; Homo sapiens, ACHN, 72 h): 1.75 µM |
| CCN(CC)CCNC(=O)c1c(C)[nH]c(/C=C2\C(=O)Nc3c2cccc3-c2csc(-c3ccccc3)n2)c1C [Compound 235] | 5.3 µM | 1.4 µM | – |
| CCN(CC)CCNC(=O)c1c(C)[nH]c(/C=C2\C(=O)Nc3ccc(-c4nnc(-c5ccccc5)s4)cc32)c1C [Compound 303] | – | – | IC50 [1]: 7.98 µM; IC50 [4]: 5.67 µM; IC50 [2]: 12.6 µM |
| CCN(CC)CCNC(=O)c1c(C)[nH]c(/C=C2\C(=O)Nc3ccc(-c4nnc(-c5ccccc5)s4)cc32)c1C [Compound 250] | 14.1 µM | – | IC50 [4]: 83.9 µM |
| CCN(CC)CCNC(=O)c1c(C)[nH]c(/C=C2\C(=O)Nc3ccc(-c4cnn(C5CCOCC5)c4)cc32)c1C [Compound 273] | 6.15 µM | 9.05 µM | IC50 [3]: 27.3 µM |
